Experiment [1] deals with 23TAG (DNA, G4) TAGGGTTAGGGTTAGGGTTAGGG
The experiment can be described thus: UV-Vis titration, Benesi-Hildebrand. As to conditions: K+ (20 mM potassium phosphate); pH 7, 25 °C; 5 μM porphyrin titrated with DNA.

For experiment [2], the system named is CMA (DNA, G4) TAGGGAGGGTAGGGAGGGT
The experiment can be described thus: UV-Vis titration, Benesi-Hildebrand. As to conditions: K+ (20 mM potassium phosphate); pH 7, 25 °C; 5 μM porphyrin titrated with DNA.

The structures appear in SMILES notation.

This note sets out measurements from publication PMC11632414 (2024).

In the case of `C[n+]1ccc(-c2c3nc(c(-c4cc[n+](C)cc4)c4ccc([nH]4)c(-c4cc[n+](C)cc4)c4nc(c(-c5cc[n+](C)cc5)c5ccc2[nH]5)C=C4)C=C3)cc1`, the results for the Kb result in experiment [1] and in experiment [2] were “(1.5±0.4)×10^6 M^-1” and “(1.5±0.6)×10^6 M^-1”, respectively.
